Publication PMC5748856 (The Journal of Experimental Medicine, 2018)
“Also recorded” adds a separate entry of the source. Ends that are not written are not given here.

Legend:
purified HLA-A*02:01 = purified HLA-A*02:01 (Homo sapiens, UniProt P04439, D140Y/D185E/D98H/E176V/E277Q/G131W/G231S/I119V/I121R/I166T/I218V/L300P/L318F/N151K/N90K/P208A/P217A/Q86G/Q94H/R138H/R169H/T345S); settings: for HLA-A*02:01 binding (in words): relative to H3.3K27M, cell-free binding assay, performed once (Fig. 4 A)
HLA-A*02:03 (human) = experiment: radioligand binding

Molecule | HLA-A*02:01 binding (in words) (purified HLA-A*02:01) | also measured
RMSAPATGGV [A6] | abrogated; also recorded: diminished | –
RKSAPSTGGV [H3.3WT, reference compound] | – | IC50 (purified HLA-A*02:01): > 38700 nM
XMSAPSTGGV [Cit H3.3] | partially retains its affinity | –
RMSAPSTGGV [H3.3K27M_(26–35) peptide] | – | IC50 (HLA-A*02:03 (human)): 747 nM
